Values of other authors in patent US20230190651A1, “Topical Aerosol Foams” (ARCUTIS BIOTHERAPEUTICS, INC., priority 2021, published 2023).
Where a name gives a salt, the structure may show the parent alone.

Molecule	Water Solubility
CC1(C)O[C@@H]2C[C@H]3[C@@H]4CCC5=CC(=O)C=C[C@]5(C)[C@H]4[C@@H](O)C[C@]3(C)[C@]2(C(=O)CO)O1 [desonide]	59 mg/L
CCC(=O)O[C@]1(C(=O)CCl)[C@@H](C)C[C@H]2[C@@H]3C[C@H](F)C4=CC(=O)C=C[C@]4(C)[C@@]3(F)[C@@H](O)C[C@@]21C [halobetasol propionate]	14 mg/L
Cc1cc(C(C)(C)C)c(O)c(C)c1CC1=NCCN1 [oxymetazoline hydrochloride]	145,000 mg/liter
C=C1/C(=C\C=C2/CCC[C@]3(C)[C@@H]([C@H](C)/C=C/[C@@H](O)C4CC4)CC[C@@H]23)C[C@@H](O)C[C@@H]1O [calcipotriene]	13.5 mg/L
NC(N)=O [urea]	1,190,000 mg/liter
CC(=O)N1CCN(c2ccc(OCC3COC(Cn4ccnc4)(c4ccc(Cl)cc4Cl)O3)cc2)CC1 (stereo not drawn) [ketoconazole]	0.09 mg/L
ivermectin	4 mg/L
CCC[C@@H]1C[C@@H](C(=O)N[C@@H]([C@H]2O[C@H](SC)[C@H](OP(=O)(O)O)[C@@H](O)[C@H]2O)[C@H](C)Cl)N(C)C1 [clindamycin phosphate]	250,000 mg/liter
O=C(O)CCCCCCCC(=O)O [azelaic acid]	2,140 mg/liter
CCC(=O)O[C@]1(C(=O)CCl)[C@@H](C)C[C@H]2[C@@H]3CCC4=CC(=O)C=C[C@]4(C)[C@@]3(F)[C@@H](O)C[C@@]21C [clobetasol propionate]	4 mg/L
O=C(Nc1c(Cl)cncc1Cl)c1ccc(OC(F)F)c(OCC2CC2)c1 [roflumilast]	0.54 mg/L
CCOC(=O)c1ccc(C#Cc2ccc3c(c2)C(C)(C)CCS3)nc1 [tazarotene]	32 mg/L
